Source: PubChem BioAssay (NCI)
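Cultured in 96-well plates, cells were exposed to test compound for 48 hours across five concentrations. Here, GI50 denotes the concentration required for 50% inhibition of growth. TGI: concentration producing complete growth inhibition.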

How the values were obtained:
Assay in all cases: DTP human tumour cell line panel, 48 h
MDA-MB-231 breast = tested on: MDA-MB-231 breast
SR leukemia = tested on: SR leukemia
SK-OV-3 ovarian = tested on: SK-OV-3 ovarian
SF-539 CNS = tested on: SF-539 CNS
RPMI-8226 leukemia = tested on: RPMI-8226 leukemia
TK-10 renal = tested on: TK-10 renal
NCI-H226 lung = tested on: NCI-H226 lung

Row | SMILES | TGI (MDA-MB-231 breast) [µM] | TGI (SR leukemia) [µM] | TGI (SK-OV-3 ovarian) [µM] | TGI (SF-539 CNS) [µM] | TGI (RPMI-8226 leukemia) [µM] | TGI (TK-10 renal) [µM] | TGI (NCI-H226 lung) [µM] | GI50 (RPMI-8226 leukemia) [µM]
1 | NC(=Nc1ccc(O)cc1)S(=O)O | > 100 | > 100 | > 100 | > 100 | > 100 | > 100 | > 100 | 
2 | C=CCOC(=O)[C@@H]1C[C@@H](OC(C)(C)C)CN1C(=O)[C@@H]1[C@H]2OC(C)(C)O[C@H]2CN1C(=O)OCC1c2ccccc2-c2ccccc21 | 33.1 | 31.7 | 31.6 | 28.9 | 32.3 | 32.5 | 47.7 | 
3 | O=C(O)c1ccccc1/C=N/NC1=NCCCCN1 | > 100 | > 100 | > 100 | > 100 | > 100 | > 100 | > 100 | 
4 | C=C1C(=O)O[C@H]2[C@H]1CC(=O)/C(C)=C/CC[C@@]1(C)O[C@@H]21 | 3.5 | 7.74 | 25.9 | 4.6 | 1.92 | 2.65 | 19.8 | 0.308
5 | O=C(c1cccc(C(=O)c2ccc3c4c(cccc24)C(=O)N(c2ccccc2)C3=O)c1)c1ccc2c3c(cccc13)C(=O)N(c1ccccc1)C2=O | > 100 |  | > 100 | > 100 | > 100 | > 100 | > 100 | 
6 | Cc1cc(OCC(=O)N/N=C/C(Br)=C/c2ccccc2)nc(SCC(=O)N/N=C/C(Br)=C/c2ccccc2)n1 |  | > 100 |  |  | > 100 |  |  | 
7 | O=C(CCN1CCOCC1)Nc1ccc2sc3ccccc3c(=O)c2n1 | > 100 | > 100 | > 100 | > 100 | > 100 | > 100 |  | 
8 | COc1cc(O)c2c(=O)cc(C3(O)C=CC(=O)C=C3)oc2c1 | 0.789 | 0.126 | 13.8 |  |  | 0.376 | 1.73 | 
9 | C=CCNC1=C2C[C@@H](C)C[C@@H](OC)[C@H](OC(=O)CN)[C@H](C)/C=C(\C)[C@@H](OC(N)=O)[C@H](OC)/C=C\C=C(/C)C(=O)NC(=CC1=O)C2=O | 15.6 | > 40 | 12.5 | 15.9 | > 52.3 | 14.2 |  | 
10 | C[C@]12[C@@H]3CC[C@H]1[C@@H](OC(=O)Nc1cc([N+](=O)[O-])cc([N+](=O)[O-])c1)C(=O)N2CC3 | > 100 | > 100 | > 100 |  | > 100 | > 100 | > 100 | 
11 | Cc1c(C)c(S(=O)(=O)N(CCCN)OCCCN)c(C)c2c1OC(C)(C)C2 | 33.3 | > 100 | > 100 |  | > 100 | > 100 | > 100 | 
12 | CC1(C)CC(=O)c2c(nc(SSc3nc4c(c(-c5ccccc5)c3C#N)C(=O)CC(C)(C)C4)c(C#N)c2-c2ccccc2)C1 |  |  | > 10 | > 10 | > 10 | > 10 | > 10 | 
13 | COc1ccc(C2SC(C)C(=O)N2c2nc(-c3nc(-c4ccc(Cl)cc4)cs3)cs2)cc1 (stereo not given) | > 100 | > 100 | > 100 | > 100 | > 100 | > 100 | > 100 | 
14 | N#CC(Cc1ccccc1Br)N(CCC1=CCCCC1)C(c1ccccc1)c1ccccc1 (stereo not given) | > 100 |  | > 100 |  | 83.5 | > 100 |  | 
15 | C=CC[C@@H]1C(=O)[C@@]2(O[Si](C(C)C)(C(C)C)C(C)C)CC[C@@H]1C[C@H]2NC(=O)OCC(Cl)(Cl)Cl |  | > 100 | > 100 |  |  | > 100 | > 100 | 
16 | O=C=NCCCCCCN1C(=O)N2C(c3ccccc3)N(CCCCCCN=C=O)C(=O)N2C1c1ccccc1 (stereo not given) | > 100 | > 100 |  | > 100 | > 100 | > 100 | > 100 | 

Row | SMILES | TGI (MDA-MB-231 breast) [µM] | TGI (SR leukemia) [µM] | TGI (SK-OV-3 ovarian) [µM] | TGI (SF-539 CNS) [µM] | TGI (RPMI-8226 leukemia) [µM] | TGI (TK-10 renal) [µM] | TGI (NCI-H226 lung) [µM] | GI50 (RPMI-8226 leukemia) [µM]
17 | C=C1CN(Cc2ccccc2)[C@@H]2CCCCC[C@H](C#N)[C@H]12 | > 100 | > 100 | > 100 | > 100 | > 80.1 | > 100 | > 100 | 
18 | COc1cc2c(cc1O)[C@@H]1Cc3c(cc(OC)c(OC)c3Oc3cc4c(cc3OC)CCN(C)[C@@H]4Cc3ccc(O)cc3)[C@H](C2)N1C | 98.2 | 19.3 | > 100 | 65.2 | > 79.6 | > 100 | > 100 | 
19 | Clc1nc2n(c1/C=C/c1cccs1)CCS2 | 48.8 |  | 95.8 |  | 48.7 | > 100 | > 100 | 
20 | O=c1[nH]n(Cc2ccccn2)c2ccc([N+](=O)[O-])cc12 | > 100 | > 100 |  | > 100 | > 100 | > 100 | > 100 | 
21 | CCCCCCCN1C(=O)C(O)(c2ccc(C3(O)C(=O)N(CCCCCCC)c4ccccc43)s2)c2ccccc21 (stereo not given) | 4.12 | 18.4 | 2.2 | 3.34 | 4.69 | 5.67 |  | 
22 | O=C(Nc1ccccc1F)c1cc2ccc(O)cc2oc1=Nc1cccc(C(F)(F)F)c1 |  | 17.7 | 35.2 | 22.3 | > 100 |  |  | 
23 | CCOC(=O)/C=C1\c2ccccc2C(=O)N1CC(=O)OCC | > 100 |  | > 100 |  | > 100 | > 100 | > 100 | 
24 | Cc1c(C)c2c(c(N)c1C#N)C(=O)N(CCN1CCNCC1)C2=O | > 100 | 95 |  | > 100 | > 100 | > 100 | > 100 | 
25 | NC(=O)NC(=O)c1cccc(NC(=O)CBr)c1 | 0.951 | 0.152 | 0.963 |  | 0.306 | 0.281 | 0.067 | 
26 | CCCCC(=O)Oc1ccc2c(C)cc(=O)oc2c1 | > 100 | > 100 |  | > 100 | > 100 | > 100 | > 100 | 
27 | O=C(c1ccc(Br)cc1)n1c2ccc(Br)cc2c2nc3ccccc3nc21 |  | > 100 |  | > 100 | > 100 | > 100 | > 100 | 
28 | NC(Cc1ccccc1)(C(=O)O)C(=O)O | > 100 |  | > 100 | > 100 | > 100 | > 100 | > 100 | 
29 | Cc1ccc(S(=O)(=O)NC(=O)Nc2ccc(S(N)(=O)=O)cc2S(N)(=O)=O)cc1 | > 100 |  | > 100 |  | > 100 | > 100 | > 100 | 
30 | C=CC(C)CCC(C/C=C(\C)CCC=C(C)C)C(=C)CCCC(C)C (stereo not given) | > 100 | > 100 | > 100 | > 100 | > 100 | > 100 |  | 
31 | O=C1/C(=C/c2ccco2)N=C(c2ccccc2)N1c1cc2cc(Sc3ccccc3)ccc2[nH]1 |  | > 25 |  | > 25 | 2.4 |  |  | 
